25 molecules from ChEMBL document CHEMBL3856283, “Structure-based design of ester compounds to inhibit MLL complex catalytic activity by targeting mixed lineage leukemia 1 (MLL1)-WDR5 interaction” (Bioorg Med Chem, 2016) can be followed below.

Usually IC50 stands for the concentration that inhibits the measured activity by half. For orientation: Kd means the concentration at which binding is half-saturated. A high value points to a looser complex.

Data set [1] can be described thus: Antiproliferative activity against human MV4-11 cells harboring MLL-AF4 after 7 days by CellTiter-Glo luminescent cell viability Assay. The data set is classed as functional, cell-based. The note with it: MV4-11, 168 h. Background: Cellular ATP, detected with luciferase, serves as a proxy for viable cell number.
Data set [2] can be described thus: Antiproliferative activity against human K562 cells harboring BCR-ABL assessed as inhibition of cell viability after 72 hrs by CCK8-based colorimetric assay. Particulars: K562, 72 h. It counts as functional.
The nature of data set [3]: Antiproliferative activity against human MV4-11 cells harboring MLL-AF4 assessed as inhibition of cell viability after 72 hrs by CCK8-based colorimetric assay. The data set is classed as functional. Particulars: MV4-11, 72 h. On the technique in general: Tetrazolium dyes change colour on reduction, which living cells bring about.
The target in data set [4] is T1, WD repeat-containing protein 5 (Homo sapiens, UniProt P61964). Description: Inhibition of C-terminal 5-FAM-ARTEVHLRKS binding to WDR5 (unknown origin) by fluorescence polarization assay. On the technique in general: Fluorescence polarisation rises when a labelled molecule tumbles more slowly, as on binding a larger partner.
A short description of data set [5]: Permeability of the compound after 4 hrs by PAMPA. The data set is classed as ADME. The note with it: read-out: permeability.
Data set [6] concerns the target T1, WD repeat-containing protein 5. The experiment in a line: Inhibition of N-terminal FITC-GSARAEVHLRKS binding to WDR5 (unknown origin) by fluorescence polarization assay.
In data set [7] the target is MLL1/ASH2L/RBBP5/WDR5 complex (Homo sapiens, UniProt P61964+Q03164+Q15291+Q9UBL3). Description: Inhibition of recombinant MLL1 (unknown origin) interaction with recombinant ASH2L/RBBP5/WDR5 (unknown origin) assessed as decrease in histone methylation after 60 mins by Alpha Screen assay. It counts as protein-complex assay.
The test system of data set [8] is K562. Description: Selectivity ratio of IC50 for human K562 cells harboring BCR-ABL to IC50 for human MV4-11 cells harboring MLL-AF4. The data set is classed as functional.

Regarding `CCC(CC)(NC(=O)C(C)C)C(=O)N[C@@H](CCCNC(=N)N)C(=O)NC1(C(=O)NC(c2ccc(F)cc2)c2ccc(F)cc2)CCCC1`, the IC50 came out at 25 µM in data set [1], 37.8 µM in data set [2] and 20.7 µM in data set [3].

`Cc1c(F)c([N+](=O)[O-])cc(C(=O)Nc2cc(C(=O)OC3CCCCC3)ccc2N2CCN(C)CC2)c1Cl` came in with an IC50 in data set [4] of over 0.02 µM.

`CC(C)OC(=O)c1ccc(N2CCN(C)CC2)c(NC(=O)c2ccc(F)c([N+](=O)[O-])c2)c1`: the Papp at 4 h in data set [5] came out at 61.4 ×10⁻⁶ cm/s. Besides, the IC50 in data set [2] was determined as 58 µM; in data set [3], 13.3 µM; in data set [4] it was 1.17 µM.

Take `Cc1c(F)ccc(C(=O)Nc2cc(C(=O)OC(C)C)ccc2N2CCN(C)CC2)c1Cl`: the Papp at 4 h in data set [5] was determined as 49.8 ×10⁻⁶ cm/s. Also, the figures for the IC50 in data set [2], in data set [3] and in data set [4] were over 100 µM, 57.1 µM and 0.264 µM, respectively.

In the case of `CN1CCN(c2ccc(C(=O)Oc3ccccc3)cc2NC(=O)c2ccc(F)c([N+](=O)[O-])c2)CC1`, the Papp at 4 h in data set [5] worked out at 60 ×10⁻⁶ cm/s. For the same molecule, the IC50 in data set [2] stood at 11.6 µM; in data set [3], 10.8 µM; in data set [4] it was 0.483 µM.

In data set [6], `COC(=O)c1ccc(N2CCN(C)CC2)c(NC(=O)c2cccc(OC)c2)c1` displayed a Kd of 3 µM.

Turning to `CN1CCN(c2ccc(C(=O)Oc3ccccc3)cc2NC(=O)c2ccc(F)c(N)c2)CC1`, the IC50 in data set [4] is over 20 µM.

`COC(=O)c1ccc(N2CCN(C)CC2)c(NC(=O)c2cc(N)c(F)c(C)c2Cl)c1`: the half-maximal inhibitory concentration (IC50) in data set [7] was 4.6 µM; in data set [2] it was over 100 µM; in data set [3], over 100 µM; in data set [4] it was 0.0465 µM. For the same molecule, the Papp at 4 h in data set [5] came to 52.9 ×10⁻⁶ cm/s.

Regarding `Cc1c(F)ccc(C(=O)Nc2cc(C(=O)Oc3ccccc3)ccc2N2CCN(C)CC2)c1Cl`, the Papp at 4 h in data set [5] is 48 ×10⁻⁶ cm/s. Moreover, the half-inhibitory concentration (IC50) in data set [2] was found to be 53.9 µM; in data set [3], 45.2 µM; in data set [4] it was 0.162 µM.

Regarding `CCOC(=O)c1ccc(N2CCN(C)CC2)c(NC(=O)c2ccc(F)c(C)c2Cl)c1`, the Papp at 4 h in data set [5] is 44.9 ×10⁻⁶ cm/s. Further, the IC50 in data set [2] was 90.7 µM; in data set [3] it was 49.8 µM; in data set [4] it was 0.284 µM.

`CN1CCN(c2ccc(C(=O)OC3CCCCC3)cc2NC(=O)c2ccc(F)c([N+](=O)[O-])c2)CC1` displayed an IC50 in data set [4] of over 20 µM.

Consider `CCOC(=O)c1ccc(N2CCN(C)CC2)c(NC(=O)c2ccc(F)c([N+](=O)[O-])c2)c1`, for which the half-inhibitory concentration (IC50) in data set [4] was over 0.02 µM.

In the case of `Cc1c(F)ccc(C(=O)Nc2cc(C(=O)O)ccc2N2CCN(C)CC2)c1Cl`, the IC50 in data set [4] is over 20 µM.

`COC(=O)c1ccc(N2CCN(C)CC2)c(NC(=O)c2ccc(F)c(N)c2)c1` had an IC50 in data set [4] of over 0.02 µM.

Take `COC(=O)c1ccc(N2CCN(C)CC2)c(NC(=O)c2ccc(F)c(C)c2Cl)c1`: in data set [5], the Papp at 4 h came out at 59.8 ×10⁻⁶ cm/s. Also, the IC50 in data set [2] was over 100 µM; in data set [3], over 100 µM; in data set [4], 0.433 µM.

`CC(C)OC(=O)c1ccc(N2CCN(C)CC2)c(NC(=O)c2ccc(F)c(N)c2)c1` yielded an IC50 in data set [4] of over 0.02 µM.

Regarding `COC(=O)c1ccc(N2CCN(C)CC2)c(NC(=O)c2ccc(F)c([N+](=O)[O-])c2)c1`, in data set [8], the “Ratio IC50” value is given as 10. For the same molecule, the Papp at 4 h in data set [5] was found to be 52.4 ×10⁻⁶ cm/s. Moreover, the IC50 was 57.1 µM in data set [2], 4.7 µM in data set [3] and 0.454 µM in data set [4].

`Cc1c(F)ccc(C(=O)Nc2cc(C(=O)OC3CCCCC3)ccc2N2CCN(C)CC2)c1Cl` came in with an IC50 in data set [4] of over 20 µM.

Molecule `CN1CCN(c2ccc(C(=O)OC3CCCCC3)cc2NC(=O)c2ccc(F)c(N)c2)CC1` displayed an IC50 in data set [4] of over 0.02 µM.

Take `Cc1c(F)c(N)cc(C(=O)Nc2cc(C(=O)Oc3ccccc3)ccc2N2CCN(C)CC2)c1Cl`: the IC50 was determined as 5.4 µM in data set [7], 33.4 µM in data set [2], 66.5 µM in data set [3] and 0.0264 µM in data set [4]. Further, in data set [5], the Papp at 4 h amounted to 38 ×10⁻⁶ cm/s.

Regarding `Cc1c(F)c(N)cc(C(=O)Nc2cc(C(=O)OC3CCCCC3)ccc2N2CCN(C)CC2)c1Cl`, the Papp at 4 h in data set [5] was 5.6 ×10⁻⁶ cm/s. The values for the IC50 in data set [2], in data set [3] and in data set [4] were over 100 µM, over 100 µM and 0.0588 µM, respectively.

`CN1CCN(c2ccc(C(=O)O)cc2NC(=O)c2ccc(F)c([N+](=O)[O-])c2)CC1` showed an IC50 in data set [4] of over 0.02 µM.

As to `COC(=O)c1ccc(N2CCN(C)CC2)c(NC(=O)c2cc([N+](=O)[O-])c(F)c(C)c2Cl)c1`, the Papp at 4 h in data set [5] is 74.8 ×10⁻⁶ cm/s. Moreover, the IC50 in data set [2] was 17.2 µM; in data set [3], 3.4 µM; in data set [4], 0.245 µM.

For the molecule `Cc1c(F)c([N+](=O)[O-])cc(C(=O)Nc2cc(C(=O)Oc3ccccc3)ccc2N2CCN(C)CC2)c1Cl`, in data set [5], the Papp at 4 h came out at 56.3 ×10⁻⁶ cm/s. For the same molecule, the concentration for half-maximal inhibition (IC50) was 15.7 µM in data set [2], 9.9 µM in data set [3] and 0.812 µM in data set [4].

`CC(C)NCC(O)COc1cccc2ccccc12` (stereo unspecified) [PROPRANOLOL]: the Papp at 4 h in data set [5] was determined as 98.7 ×10⁻⁶ cm/s.
